Measured values from article doi:10.1101/2020.12.13.873687v1 (biorxiv, 2020).

Molecular target: human amylin (islet amyloid polypeptide, IAPP) (Homo sapiens, UniProt P10997)
Experiment: thioflavin T fluorescence amyloid aggregation inhibition
Assay type: biochemical

human amylin (islet amyloid polypeptide, IAPP), sequence (P10997 34-70): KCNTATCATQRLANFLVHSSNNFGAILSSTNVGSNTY

Compound	IC50 [µM]
O=C(O[C@@H]1Cc2c(O)cc(O)cc2O[C@@H]1c1cc(O)c(O)c(O)c1)c1cc(O)c(O)c(O)c1 [Epigallocatechin gallate, reference compound]	~1
O=C(O)[C@H](O)Cc1ccc(O)c(O)c1 [salvianic acid A]	90
O=C(/C=C/c1ccc(O)c(O)c1)O[C@H](Cc1ccc(O)c(O)c1)C(=O)O [rosmarinic acid]	0.2 to 0.3
O=C(O)/C=C/c1ccc(O)c(O)c1 [caffeic acid]	7.2
